Tests used:
[1] = in vivo
[2] = test system: mice; conditions: mouse, in vivo
[3] = test system: goldfish; conditions: in vivo

Substance | activity in formalin test (licking time) [1] | effects observed shortly after injection in mice [2] | effects observed shortly after injection in goldfish [3]
Gly-Xaa3-Ser-Phe-Cys-Lys-Ala-Asn-Gly-Lys-Xaa3-Cys-Ser-Xaa5-His-Ala-Asp-Cys-Cys-Asn-Cys-Cys-Leu-Ser-Gly-Ile-Cys-Lys-Xaa3-Ser-Thr-Asn-Val-Ile-Leu-Xaa3-Gly-Cys-Ser-Thr-Ser-Ser-Phe-Phe-Arg-Ile [R11.14] | active | – | –
Xaa2-Cys-Lys-Thr-Asn-Lys-Met-Ser-Cys-Ser-Leu-His-Xaa1-Xaa1-Cys-Cys-Arg-Phe-Arg-Cys-Cys-Phe-His-Gly-Lys-Cys-Gln-Thr-Ser-Val-Phe-Gly-Cys-Xaa4-Val-Asp-Xaa3 [R11.19] | – | running and jumping in short duration immediately followed by convulsion with back legs kicking, copius urination, coma and death | gasping (gills opening widely), followed by swimming backward or in circular and/or vertical motion, imbalanced swimming (body tilting), lying almost flat near the bottom and death

Reference: US6767895B2 (priority 2000, dated 2004)
